Source: publication PMC8003416, “Modulation of Human Phenylalanine Hydroxylase by 3-Hydroxyquinolin-2(1H)-One Derivatives” (Biomolecules, 2021)

Key:
[1] = molecular target: T1, hPAH transiently expressed in HEK-293T cells (Homo sapiens, UniProt P00439); assay: hPAH activity and protein level in transfected HEK-293T cells; format: cell-based; conditions: 24 h; for hPAH protein content after translation block / increase in hPAH expression (protein level): 50 μM; for hPAH protein content after translation block: then 10 μg/mL puromycin, 1, 3, 6 h; for increase in hPAH expression (protein level): western blot normalized to GAPDH; for hPAH activity in cell lysate: 50 and 100 μM, vs DMSO
T1 construct: expressed in transfected cells; host or cells: HEK-293T (ATCC CRL-11268)
T1 sequence (P00439 1-452): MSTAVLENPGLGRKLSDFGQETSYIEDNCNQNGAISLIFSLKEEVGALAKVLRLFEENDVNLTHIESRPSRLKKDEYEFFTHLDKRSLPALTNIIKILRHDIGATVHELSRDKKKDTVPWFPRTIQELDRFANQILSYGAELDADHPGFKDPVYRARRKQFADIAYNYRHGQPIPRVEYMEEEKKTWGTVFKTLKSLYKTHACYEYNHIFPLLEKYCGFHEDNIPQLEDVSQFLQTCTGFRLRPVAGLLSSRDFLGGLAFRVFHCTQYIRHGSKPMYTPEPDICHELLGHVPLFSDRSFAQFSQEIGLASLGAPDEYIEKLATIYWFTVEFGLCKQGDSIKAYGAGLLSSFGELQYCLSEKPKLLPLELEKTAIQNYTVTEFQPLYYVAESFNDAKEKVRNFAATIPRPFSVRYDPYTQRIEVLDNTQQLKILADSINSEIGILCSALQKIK
Protocol: HEK-293T cells (ATCC CRL-11268) were grown in RPMI 1640 medium (Gibco Life Technologies¸ Carlsbad, CA, USA) and supplemented with heat inactivated (60 °C for 30 min) fetal bovine serum (10%; v/v), penicillin (100 U/mL) and streptomycin (0.1 mg/mL) at 37 °C, in 5% CO2 in a humidified atmosphere. 1 × 10^5 cells were transfected with 750 ng of DNA (eukaryotic vector expressing hPAH; pEF-DEST51-PAH-WT) using lipofectamine (Invitrogen) as the transfection agent. Compounds (50 and 100 μM) or DMSO (0.5 and 1%) were added 4 h after transfection, and cells were further incubated for 24 h. For sample collection cells were trypsinized with 500 μL of TripLE Express (Gibco Life Technologies), centrifuged at 200× g for 5 min, at 4 °C, and washed with PBS. The pellet was resuspended in 50 μL of PBS with 200 μM PMSF and cells were disrupted by passage (≈20×) through a fine needle. The cell debris were removed by centrifugation at 14,000× g for 5 min at 4 °C and the obtained cell lysates were used for enzymatic activity assays and western blot analysis. Three independent cell cultures were performed.
For the stability assays, after 24 h incubation with compounds, protein translation was stopped by the addition of 10 μg/mL puromycin (Sigma-Aldrich). Cells were collected at 0, 1, 3, and 6 h after blockage of translation. Two independent cell cultures were performed.
The hPAH activity of cell lysates was measured essentially as described in [26] in a final volume of 200 μL containing 1 mM L-Phe, 250 mM Na-Hepes, pH 7, 0.1 mg/mL catalase and 20 μL of cell lysate. After 4 min of pre-incubation, 100 μM (NH4)2Fe(II)SO4 was added to the mixture. Two min after ferrous ammonium sulphate addition, the reaction was initiated by the injection of BH4 (75 μM). Tyrosine production was assessed by measuring the increase in fluorescence intensity (λexc 274 nm and λem 304 nm) in a FLUOstar Omega microplate reader (BMG Labtech), at 25 °C, during 30 min. Enzyme activity was determined as the amount of L-Tyr produced per min per mg of total protein. For each cell culture enzymatic assays were performed in triplicate.
For western blot analysis of cell lysates, 4 μg of total protein were applied on an 8 to 16% mini-protean TGX precast polyacrylamide gel (Bio-Rad), and the proteins were transferred to a polyvinylidene fluoride (PVDF; GE Healthcare) membrane and visualized by immunodetection using mouse anti-PAH (MAB 5278; Millipore; Burlington, MA, USA) and mouse anti-glyceraldehyde 3-phosphate dehydrogenase (GAPDH (loading control); sc-365062, Santa Cruz Biotechnology; Dallas, TX, USA) as the primary antibodies and the anti-mouse IgG-HRP (W402B, Promega; Madison, WI, USA) as the secondary antibody. Immunoblots were developed with enhanced chemiluminescent agents (ECL Prime; GE Healthcare) and the images were acquired in a charge-coupled device imager ChemiDoc XRS (Bio-Rad) using the Quantity One software (Bio-Rad).

[2] = molecular target: T2, human phenylalanine hydroxylase (hPAH) (Homo sapiens, UniProt P00439); assay: Small-angle X-ray scattering of hPAH; conditions: 200 μM in buffer/2% DMSO
T2 construct: Recombinant full-length wild-type (WT) hPAH was expressed in E. coli Top10 cells in fusion with a hexa-histidyl peptide; made in house; host or cells: E. coli Top10
T2 sequence (P00439 1-452): T1 sequence (P00439 1-452)
Protocol: Small-angle X-ray scattering experiments were performed at the Diamond Light Source B21 [30] beamline at a wavelength of 0.95 Å. Tetrameric hPAH was thawed on ice, centrifuged at 12,000× g for 8 min at 4 °C, and quantitated using a NanoDrop (molar extinction coefficient: 10.09 mg/mL/cm) prior to data acquisition. Measurements were performed in static mode with the automated sample changer at 20 °C using a protein concentration of 86 μM (monomer) in 20 mM Na-HEPES, 200 mM NaCl, pH 7.0 in the absence or presence of 2% DMSO. L-Phe and compound 9 were tested at a final concentration of 200 μM in 2% DMSO. Data were recorded using a Pilatus 2M detector covering a momentum transfer 0.0031 < s < 0.380 Å-1 (s = 4π sin θ/λ, where 2θ is the scattering angle). The data were processed and analyzed using the ATSAS program suite. The sample frames were monitored for radiation damage, the selected frames were averaged, and the buffer contribution was subtracted using PRIMUS [32]. The radius of gyration (Rg) and the maximum particle dimension (Dmax) were estimated from the Guinier approximation using PRIMUS and from the pair-distribution function P(r) using the GNOM package, respectively. Fitting of the experimental curves and the theoretical curves computed from SASBDB models was performed using CRYSOL [31].

Structure (SMILES)	hPAH protein content after translation block [1]	increase in hPAH expression (protein level) [1]	hPAH activity in cell lysate [1]	Dmax of hPAH [2] [Å]	MM of hPAH (MM = VP/1.6) [2] [kDa]	Rg^Guinier of hPAH [2] [Å]	Rg^P(r) of hPAH [2] [Å]	VP (excluded particle volume) of hPAH [2]
COC(=O)CC[C@H](NC(=O)c1c(O)c(=O)[nH]c2ccc(OC(F)(F)F)cc12)C(=O)OC [Compound 9]	hPAH protein content is maintained as a function of time	1.8 fold	higher activity	189	268	52.14 ± 0.07	52.00 ± 0.05	428,899 Å^3
COC(=O)CNC(=O)c1c(O)c(=O)[nH]c2ccc(OC(F)(F)F)cc12 [Compound 11]	hPAH protein content is maintained as a function of time	did not affect the hPAH protein levels	higher activity	–	–	–	–	–
N[C@@H](Cc1ccccc1)C(=O)O [L-Phe, L-phenylalanine, reference compound]	–	–	–	179	393	52.73 ± 0.07	–	629,301 Å^3
